Experimental data as given in PubChem BioAssay (NCI).
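Values below derive from 48-hour exposures of cells grown in 96-well plates, with endpoints linearly interpolated between the two concentrations bracketing the appropriate inhibition level. GI50 marks 50% less growth. Definition used: TGI = concentration required for complete inhibition of growth.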

How the values were obtained:
Assay in all cases: growth of human tumour cells (NCI), 48 h
[1] = tested on: K-562 leukemia
[2] = tested on: A498 renal
[3] = tested on: MALME-3M melanoma
[4] = tested on: M14 melanoma
[5] = tested on: HOP-62 NSCLC
[6] = tested on: TK-10 renal
[7] = tested on: NCI-H23 lung
[8] = tested on: SNB-19 CNS
[9] = tested on: A549 NSCLC
[10] = tested on: SN12C renal
[11] = tested on: HOP-92 NSCLC
[12] = tested on: SW-620 colon
[13] = tested on: RPMI-8226 leukemia
[14] = tested on: OVCAR-5 ovarian
[15] = tested on: PC-3 prostate
[16] = tested on: HCC-2998 colon
[17] = tested on: HS 578T breast
[18] = tested on: MDA-MB-231 breast
[19] = tested on: BT-549 breast

SMILES	TGI [1] [µM]	TGI [2] [µM]	TGI [3] [µM]	TGI [4] [µM]	TGI [5] [µM]	TGI [6] [µM]	TGI [7] [µM]	TGI [8] [µM]	TGI [9] [µM]	TGI [10] [µM]	TGI [11] [µM]	TGI [12] [µM]	TGI [13] [µM]	TGI [14] [µM]	TGI [15] [µM]	TGI [16] [µM]	TGI [17] [µM]	TGI [18] [µM]	TGI [19] [µM]	GI50 [1] [µM]
O=C(Nc1c(O)[nH]c(=S)[nH]c1=O)c1ccc2ccccc2n1	> 100	> 100	> 100	> 100	> 100	> 100	> 100	> 100	> 100	> 100	> 100	> 100	> 100							
CCOP(=O)(C=C=C(C)C)OCC	> 100	> 100	> 100	> 100	> 100	> 100	> 100	> 100	> 100	> 100	> 100	> 100		> 100	> 100	> 100	> 100			
CCOC(=O)/C(=C/c1ccc(C#N)cc1)N(CC)CC	> 100	> 100	> 100	> 100	> 100	> 100	> 100		> 100	> 100	> 100	> 100	> 100	> 100		> 100				
CC(C)NCC(O)c1ccc(OCc2ccccc2)c(OCc2ccccc2)c1-c1ccccc1 (centres undefined)		11.6	3.16		3.25	3.9		4.07	3.21	3.13	6.94	3.13		3.16	3.11	3.06	2.74	3.16		
Cc1[nH]c(=O)nc(NCCNCCO)c1C(=O)Nc1c2ccccc2nc2ccccc12	> 100	> 100	> 100	> 100	> 100	> 100	> 100	> 100	> 100	> 100	> 100	> 100	> 100	> 100	> 100	> 100		> 100		
O=C(NCCO)Nc1c(C(F)(F)F)cc(-c2ccccc2)[nH]c1=O	> 100	> 100		> 100	> 100	> 100	> 100	> 100	> 100	> 100	> 100	> 100	> 100	> 100	> 100	> 100		> 100	> 100	
COC(=O)[C@]1(C)CCC[C@@]2(C)C1CCC1=CC3(C(C)C)CCC12OO3 (some centres undefined)	> 100	> 100	> 100	> 100	> 100	> 100	> 100	> 100	> 100	> 100		> 100	> 100	> 100		> 100				
O=C1CC2(CCNCC2)C(=O)N1N1CCCC1	> 100		> 100	> 100	> 100	> 100	> 100	> 100	> 100	> 100		> 100	> 100	> 100	> 100	> 100		> 100	> 100	
O=S(CCCl)c1c2ccccc2nc2ccccc12 (centres undefined)	> 100	> 100	> 100	> 100	> 100	> 100	> 100	> 100	> 100	88.7	> 100	> 100		> 100	> 100	> 100		> 100		
NS(=O)(=O)c1ccc(CNc2nc(-c3cccs3)nc3ccc(I)cc23)cc1	> 100		27.9	28.4	49.9	28.1	38.4	39.7	28.5	57.7	54.4	83.8	49.5	44.4	53.3	27.7			27.8	36.7
COC(=O)CCn1cnc2c(SC)ncnc21	> 100	> 100	> 100	> 100	> 100	> 100	> 100	> 100	> 100	> 100	> 100	> 100	> 100	> 100	> 100		> 100	> 100		
CCCCCCCC/C=C\CCCCCCCC(=O)NCCN(CCN)C(=O)CCCCCCC/C=C\CCCCCCCC	> 100	> 100	> 100	> 100	> 100	> 100	> 100	> 100	> 100	> 100	> 100	> 100	> 100	> 100		> 100				
COc1ccc([C@H]2CC(=O)NCCCCN2)cc1	> 100	> 100	> 100	> 100	> 100	> 100	> 100	> 100	> 100	> 100	> 100		> 100	> 100						
CC(CO)C1=CC(C#CCOCc2ccccc2)N(C(=O)Oc2ccccc2)c2ccccc21 (centres undefined)	> 100	24.2		> 100	> 100	> 100	39.8	> 100	> 100	68.6	61.7	> 100	> 100	> 100	> 100	> 100	53.5	> 100		
Cc1ccc(Cl)c(NC(=O)C(=O)C(C(=O)c2ccncc2)C2OC(=O)c3ccccc32)c1 (centres undefined)	> 100	> 100	> 100	> 100	> 100	> 100	> 100		> 100	> 100	> 100	> 100	> 100			> 100				
N/N=C1\CCCc2c1no[n+]2[O-]	> 100	> 100	> 100	> 100	> 100	> 100	> 100	> 100	> 100	> 100		> 100	> 100	> 100	> 100	> 100	> 100	> 100		
COC(=O)C(Cl)=C1CC1	60.5	> 100	46.5	30.5	> 100	> 100	> 100	> 100	> 100	> 100	29.1	37.1	60.4	> 100		> 100				
O=C(OCC1OC(c2nn[nH]n2)C(OC(=O)c2ccccc2)C1OC(=O)c1ccccc1)c1ccccc1 (centres undefined)	> 100	> 100	> 100		> 100	> 100	> 100	> 100	> 100	> 100	> 100	> 100	> 100	> 100	> 100	> 100			> 100	
CCOC(=O)C1=c2[nH]c3cccc4cccc(c43)n2C=C(C(C)=O)C1CC(C)=O (centres undefined)	> 100	> 100		> 100	> 100	> 100	> 100	> 100	> 100	> 100	> 100	> 100	> 100	> 100	> 100	> 100			> 100	
COc1ccc2c(c1)OC[C@@H]1c3cc4c(cc3O[C@H]21)OCO4	> 100	> 100	> 100	> 100	> 100	> 100	> 100	> 100	> 100		> 100	> 100	> 100	> 100		> 100				
COc1nc2sc3c(c2c(=O)n1CCCSSCCCn1c(OC)nc2sc4c(c2c1=O)CCCC4)CCCC3	> 100		> 100	> 100	> 100	> 100	> 100	> 100	> 100	> 100	> 100		> 100	> 100	> 100	> 100		> 100		
CC(NC(=O)OC(C)(C)C)C(=O)C(N)=O (centres undefined)	> 100	> 100		> 100	> 100	> 100	> 100	> 100	> 100	> 100	> 100	> 100	> 100	> 100	> 100	> 100	> 100	> 100		
CCN(CC)CCCNc1nc2ccccc2c2[nH]c3ccc(OC)cc3c12	3.44	5.27	3.41	3.1	3	5.55	2.93	4.25	3.37	7.1	9.53	2.37	9.41	3.18	2.73	2.33	3.81	3.29		
CCOC(=O)NC(NC(C)CC)(C(F)(F)F)C(F)(F)F (centres undefined)	> 100	> 100	> 100	> 100	> 100	> 100	> 100	> 100	> 100	> 100	> 100	> 100	> 100	> 100	> 100		> 100	> 100		
CC(C)OP(=O)(OC(C)C)C(=Nc1ccccc1)NNc1ccc([N+](=O)[O-])cc1	> 100		50	41.4	> 100	46.2	> 100	> 100	88.5	> 100	40.2	> 100	70.4	> 100		> 100				
N#Cc1cc([N+](=O)[O-])ccc1NC(=O)C(=O)C(C(=O)/C=C/c1ccccc1)C1OC(=O)c2ccccc21 (centres undefined)	> 100	> 100	> 100	> 100	> 100	> 100	> 100	> 100	> 100	> 100	> 100	> 100		> 100		> 100				
O=c1ccn2n1CCCCC2	> 100	> 100	> 100	> 100	> 100	> 100	> 100	> 100	> 100	> 100	> 100	> 100	> 100	> 100	> 100	> 100	> 100	> 100		
CCCCCCCCCCCCCCCCCCOCC(CO[P+](=O)O)OCCCCCCCCCCCCCCCCCC (centres undefined)	> 50	> 50		> 50		> 50		> 50	> 50	> 50	> 50	> 50	> 50	> 50	> 50	> 50	> 50	> 50		
CN(C)c1nc(NN)c2c(-c3ccccc3)c(-c3ccccc3)oc2n1	> 100	> 100		> 100		> 100	> 100	> 100	> 100	> 100	> 100	> 100	> 100	> 100		> 100	> 100	> 100		
COP1(=O)Oc2ccccc2C(=O)C(C(F)(F)F)(C(F)(F)F)O1 (centres undefined)	> 100	> 100		> 100	> 100	> 100	> 100	> 100	> 100	> 100	> 100	> 100	> 100	> 100		> 100				
